Reference: US8629318B2, “Transgenic animals for analyzing CYP3A4 cytochrome P450 gene regulation” (University of Sydney, priority 2000, dated 2014)
Entries after “also recorded” stand apart in the source; their conditions may differ.

Tests used:
mouse Cyp3all gene = conditions: in vivo, ip, 100 mg/kg
Description: (§1) Administration of xenobiotics to mice. 8-10 week old male and female mice hemizygous for the −CYP3A4/lacZ and −13CYP3A4/lacZ transgenes were used to test the ability of a range of xenobiotics and hormones to activate expression of transgene-derived β-galactosidase. […] The dose used for all reagents to test for induction of the transgene was 100 mg/kg body weight. Dose response studies were carried out in the range of 1-100 mg/kg with male hemizygous transgenic mice.
Filters were stripped and reprobed with an 18S rRNA oligonucleotide to normalise loading.

−13CYP3A4/lacZ transgene [1] = tested on: −13CYP3A4/lacZ transgene
Description: as §1
(§2) Analysis of transgene and mouse Cyp3a gene expression. β-galactosidase activity was visualised in slices and frozen sections of liver and other tissues by staining with X-gal (5-bromo-4-chloro-3-indolyl-β-D-galactopyranoside). Tissues were fixed in 0.25% glutaraldehyde, 0.1 M phosphate buffer pH7.3, 5 mM EGTA, 2 mM MgCl2: washed in 0.1 M phosphate buffer pH7.3, 0.01% sodium deoxycholate, 0.025% NP40, 2 mM MgCl2 and stained by incubation at 37° C. in wash solution supplemented with 1 mg/ml X-gal, 5 mM potassium ferricyanide, and 5 mM potassium ferrocyanide. The level of β-galactosidase activity was determined in whole liver homogenates [100 mg fresh tissue/ml 0.25M Tris-HCl (pH 7.3)] using the O-nitrophenyl-β-D-galactopyranoside (ONPG) assay according to standard techniques. After appropriate dilution the homogenate was incubated with β-galactosidase assay reagent (0.1 M sodium phosphate buffer (pH7.3)/1 mM MgCl2/50 mmol β-mercaptoethanol/0.88 mg/ml ONPG) at 37° C., quenched by the addition of 1 M Na2CO3 and the absorbance at 420 nm determined. The units of β-galactosidase activity are given as A420/mg liver/minute.

−13CYP3A4/lacZ transgene [2] = assay: β-galactosidase activity in total liver lysates, ONPG assay, line 9/4; type: in vivo, mouse; conditions: 100 mg/kg i.p. daily for 4 days, FIG. 3A
Description: as §1, §2

−13CYP3A4/lacZ transgene [3] = assay: Xenobiotic induction of transgene expression in line 15/10; type: in vivo, mouse; conditions: data not shown
Description: as §1
Analysis of transgene and mouse Cyp3a gene expression. β-galactosidase activity was visualised in slices and frozen sections of liver and other tissues by staining with X-gal (5-bromo-4-chloro-3-indolyl-β-D-galactopyranoside). […] The level of β-galactosidase activity was determined in whole liver homogenates [100 mg fresh tissue/ml 0.25M Tris-HCl (pH 7.3)] using the O-nitrophenyl-β-D-galactopyranoside (ONPG) assay according to standard techniques. After appropriate dilution the homogenate was incubated with β-galactosidase assay reagent (0.1 M sodium phosphate buffer (pH7.3)/1 mM MgCl2/50 mmol β-mercaptoethanol/0.88 mg/ml ONPG) at 37° C., quenched by the addition of 1 M Na2CO3 and the absorbance at 420 nm determined. […]

With `CC(=O)[C@H]1[C@H](C#N)C[C@H]2[C@@H]3CC=C4C[C@@H](O)CC[C@]4(C)[C@H]3CC[C@@]21C` [pregnenolone 16α-carbonitrile] as the molecule, how does the “hepatic Cyp3all mRNA, females versus males” value (mouse Cyp3all gene) read?
The value was “higher levels of Cyp3all mRNA were observed in females than males”.

What about the “hepatic transgene expression, X-gal staining of liver slices (cells containing β-galactosidase)” value (−13CYP3A4/lacZ transgene [1]; female mice line 9/4, 100 mg/kg i.p. daily for 4 days, compared with corn oil treated mice) of the same molecule?
Its value is “increased zone of blue staining cells”.

What about the “relative degree of induction of transgene, β-galactosidase activity in liver lysates” value (shortened to “relative degree”) (−13CYP3A4/lacZ transgene [2]; 100 mg/kg) of the same molecule?
Its value is “most potent xenobiotic activators; also recorded: most potent inducers”.

Which “relative degree” value (−13CYP3A4/lacZ transgene [2]) does the source give for `Clc1ccccc1C(c1ccccc1)(c1ccccc1)n1ccnc1` [clotrimazole] here?
Its value is “intermediate inducers”.

`CC(=O)[C@H]1CC[C@H]2[C@@H]3CC=C4C[C@@H](O)CC[C@]4(C)[C@H]3CC[C@]12C` [pregnenolone] was tested. Which “relative degree” value (−13CYP3A4/lacZ transgene [2]; 100 mg/kg) did it give?
The value was “very weak inducers; also recorded: the induction was weak compared with xenobiotics”.

For `O=C1NC(=O)C(c2ccccc2)(c2ccccc2)N1` [phenyloin], which “relative degree” value (−13CYP3A4/lacZ transgene [2]) is on record?
Its value is “intermediate inducers”.

`C[C@@H]1C[C@H]2[C@@H]3CCC4=CC(=O)C=C[C@]4(C)[C@@]3(F)[C@@H](O)C[C@]2(C)[C@@]1(O)C(=O)COP(=O)(O)O` [dexamethasone, dexamethasone phosphate] was tested. Which “thickness of zone of X-gal positive hepatocytes” value (−13CYP3A4/lacZ transgene [1]; line 9/4, 100 mg/kg, FIG. 4B) did it give?
Its value is “up to 10 cells”.

What about the “thickness of zone of hepatocytes expressing the transgene around the central vein (X-gal)” value (−13CYP3A4/lacZ transgene [1]; line 9/4, low doses, FIG. 4B) of the same molecule?
Its value is 1-2 cells.

What about the “induction profile of transgene expression” value (−13CYP3A4/lacZ transgene [3]) of the same molecule?
Its value is “most potent activator”.
